Source: PubChem BioAssay (NCI)
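Five compound concentrations were applied to cells in 96-well plates for 48 hours; endpoints were derived by simple linear interpolation of the resulting dose-response curve. TGI marks complete inhibition of growth.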

Assays:
Assay in all cases: NCI anticancer screen, dose series, 48 h
786-0 renal = tested on: 786-0 renal
A549 NSCLC = tested on: A549 NSCLC
ACHN renal = tested on: ACHN renal
CCRF-CEM leukemia = tested on: CCRF-CEM leukemia
COLO 205 colon = tested on: COLO 205 colon
DLD-1 colon = tested on: DLD-1 colon
DMS 114 small cell lung = tested on: DMS 114 small cell lung
DMS 273 small cell lung = tested on: DMS 273 small cell lung
EKVX NSCLC = tested on: EKVX NSCLC
HCC-2998 colon = tested on: HCC-2998 colon
HCT-116 colon = tested on: HCT-116 colon
HCT-15 colon = tested on: HCT-15 colon
HL-60(TB) leukemia = tested on: HL-60(TB) leukemia
HOP-62 NSCLC = tested on: HOP-62 NSCLC
HOP-92 NSCLC = tested on: HOP-92 NSCLC
HT29 colon = tested on: HT29 colon
IGROV1 ovarian = tested on: IGROV1 ovarian
K-562 leukemia = tested on: K-562 leukemia
KM12 colon = tested on: KM12 colon
KM20L2 colon = tested on: KM20L2 colon
LOX IMVI melanoma = tested on: LOX IMVI melanoma
LXFL 529 NSCLC = tested on: LXFL 529 NSCLC
M14 melanoma = tested on: M14 melanoma
M19-MEL melanoma = tested on: M19-MEL melanoma
MALME-3M melanoma = tested on: MALME-3M melanoma
MOLT-4 leukemia = tested on: MOLT-4 leukemia
NCI-H23 lung = tested on: NCI-H23 lung
NCI-H460 lung = tested on: NCI-H460 lung
NCI-H522 lung = tested on: NCI-H522 lung
OVCAR-3 ovarian = tested on: OVCAR-3 ovarian
OVCAR-4 ovarian = tested on: OVCAR-4 ovarian
OVCAR-5 ovarian = tested on: OVCAR-5 ovarian
OVCAR-8 ovarian = tested on: OVCAR-8 ovarian
RPMI-8226 leukemia = tested on: RPMI-8226 leukemia
RXF 393 renal = tested on: RXF 393 renal
RXF-631 renal = tested on: RXF-631 renal
SF-268 CNS = tested on: SF-268 CNS
SF-295 CNS = tested on: SF-295 CNS
SF-539 CNS = tested on: SF-539 CNS
SK-MEL-2 melanoma = tested on: SK-MEL-2 melanoma
SK-MEL-28 melanoma = tested on: SK-MEL-28 melanoma
SK-MEL-5 melanoma = tested on: SK-MEL-5 melanoma
SN12C renal = tested on: SN12C renal
SNB-19 CNS = tested on: SNB-19 CNS
SNB-75 CNS = tested on: SNB-75 CNS
SNB-78 CNS = tested on: SNB-78 CNS
SW-620 colon = tested on: SW-620 colon
TK-10 renal = tested on: TK-10 renal
U251 CNS = tested on: U251 CNS
UACC-257 melanoma = tested on: UACC-257 melanoma
UACC-62 melanoma = tested on: UACC-62 melanoma
UO-31 renal = tested on: UO-31 renal
XF 498 CNS = tested on: XF 498 CNS
A498 renal = tested on: A498 renal
CAKI-1 renal = tested on: CAKI-1 renal
HOP-18 NSCLC = tested on: HOP-18 NSCLC
NCI-H226 lung = tested on: NCI-H226 lung
SK-OV-3 ovarian = tested on: SK-OV-3 ovarian
SR leukemia = tested on: SR leukemia

For `CC12Nc3ccccc3C1=C(c1ccccc1)CC1C(=O)OC(=O)C12` (stereo unspecified), the TGI (786-0 renal) was greater than 100 µM, the TGI (A549 NSCLC) was greater than 100 µM and the TGI (ACHN renal) was greater than 100 µM. It also gave a TGI (CCRF-CEM leukemia) greater than 100 µM, a TGI (COLO 205 colon) greater than 100 µM and a TGI (DLD-1 colon) greater than 100 µM. The TGI (DMS 114 small cell lung) was greater than 100 µM, the TGI (DMS 273 small cell lung) was greater than 100 µM and the TGI (EKVX NSCLC) was greater than 100 µM. The TGI (HCC-2998 colon) was greater than 100 µM, the TGI (HCT-116 colon) was greater than 100 µM and the TGI (HCT-15 colon) was greater than 100 µM. The TGI (HL-60(TB) leukemia) was greater than 100 µM, the TGI (HOP-62 NSCLC) was greater than 100 µM and the TGI (HOP-92 NSCLC) was greater than 100 µM. For the same compound, the TGI (HT29 colon) was greater than 100 µM, the TGI (IGROV1 ovarian) was greater than 100 µM and the TGI (K-562 leukemia) was greater than 100 µM. It also gave a TGI (KM12 colon) greater than 100 µM, a TGI (KM20L2 colon) greater than 100 µM and a TGI (LOX IMVI melanoma) greater than 100 µM. For the same compound, the TGI (LXFL 529 NSCLC) was greater than 100 µM, the TGI (M14 melanoma) was greater than 100 µM and the TGI (M19-MEL melanoma) was greater than 100 µM. It also gave a TGI (MALME-3M melanoma) greater than 100 µM, a TGI (MOLT-4 leukemia) greater than 100 µM and a TGI (NCI-H23 lung) greater than 100 µM. The TGI (NCI-H460 lung) was greater than 100 µM, the TGI (NCI-H522 lung) was greater than 100 µM and the TGI (OVCAR-3 ovarian) was greater than 100 µM. For the same compound, the TGI (OVCAR-4 ovarian) was greater than 100 µM, the TGI (OVCAR-5 ovarian) was greater than 100 µM and the TGI (OVCAR-8 ovarian) was greater than 100 µM. For the same compound, the TGI (RPMI-8226 leukemia) was greater than 100 µM, the TGI (RXF 393 renal) was greater than 100 µM and the TGI (RXF-631 renal) was greater than 100 µM. For the same compound, the TGI (SF-268 CNS) was greater than 100 µM, the TGI (SF-295 CNS) was greater than 100 µM and the TGI (SF-539 CNS) was greater than 100 µM. It also gave a TGI (SK-MEL-2 melanoma) greater than 100 µM, a TGI (SK-MEL-28 melanoma) greater than 100 µM and a TGI (SK-MEL-5 melanoma) greater than 100 µM. It also gave a TGI (SN12C renal) greater than 100 µM, a TGI (SNB-19 CNS) greater than 100 µM and a TGI (SNB-75 CNS) of 73.7 µM. The TGI (SNB-78 CNS) was greater than 100 µM, the TGI (SW-620 colon) was greater than 100 µM and the TGI (TK-10 renal) was greater than 100 µM. For the same compound, the TGI (U251 CNS) was greater than 100 µM, the TGI (UACC-257 melanoma) was greater than 100 µM and the TGI (UACC-62 melanoma) was greater than 100 µM. For the same compound, the TGI (UO-31 renal) was greater than 100 µM and the TGI (XF 498 CNS) was greater than 100 µM.
`CCCCCCCCCCC(=O)CCCCCCC(=O)O` was tested, and the TGI (786-0 renal) was 39.6 µM, the TGI (A498 renal) was 42.7 µM and the TGI (A549 NSCLC) was 32.2 µM. The TGI (ACHN renal) was 56.6 µM, the TGI (CAKI-1 renal) was 81.5 µM and the TGI (CCRF-CEM leukemia) was 73.8 µM. For the same compound, the TGI (COLO 205 colon) was 29.8 µM, the TGI (DLD-1 colon) was 47.2 µM and the TGI (DMS 114 small cell lung) was 50.3 µM. The TGI (DMS 273 small cell lung) was 47.1 µM, the TGI (EKVX NSCLC) was greater than 100 µM and the TGI (HCC-2998 colon) was 36.1 µM. The TGI (HCT-116 colon) was 26.7 µM, the TGI (HCT-15 colon) was 28 µM and the TGI (HL-60(TB) leukemia) was 18.7 µM. For the same compound, the TGI (HOP-18 NSCLC) was 39 µM, the TGI (HOP-62 NSCLC) was 68.8 µM and the TGI (HOP-92 NSCLC) was 35.8 µM. It also gave a TGI (HT29 colon) of 36.1 µM, a TGI (IGROV1 ovarian) of 34.9 µM and a TGI (K-562 leukemia) of 26.9 µM. It also gave a TGI (KM12 colon) of 29.9 µM, a TGI (LOX IMVI melanoma) of 31.4 µM and a TGI (LXFL 529 NSCLC) of 40.1 µM. It also gave a TGI (M14 melanoma) of 47.9 µM, a TGI (M19-MEL melanoma) of 74.7 µM and a TGI (MALME-3M melanoma) of 45 µM. For the same compound, the TGI (MOLT-4 leukemia) was 36.8 µM, the TGI (NCI-H226 lung) was greater than 100 µM and the TGI (NCI-H23 lung) was 98.4 µM. For the same compound, the TGI (NCI-H460 lung) was 30.9 µM, the TGI (NCI-H522 lung) was 50.5 µM and the TGI (OVCAR-3 ovarian) was 40 µM. The TGI (OVCAR-4 ovarian) was greater than 100 µM, the TGI (OVCAR-5 ovarian) was 51.3 µM and the TGI (OVCAR-8 ovarian) was 33.7 µM. The TGI (RPMI-8226 leukemia) was 32.3 µM, the TGI (RXF 393 renal) was 91.5 µM and the TGI (RXF-631 renal) was 43.3 µM. It also gave a TGI (SF-268 CNS) greater than 100 µM, a TGI (SF-295 CNS) of 48.7 µM and a TGI (SF-539 CNS) of 43.8 µM. For the same compound, the TGI (SK-MEL-2 melanoma) was greater than 100 µM, the TGI (SK-MEL-28 melanoma) was greater than 100 µM and the TGI (SK-MEL-5 melanoma) was 29.3 µM. The TGI (SK-OV-3 ovarian) was greater than 100 µM, the TGI (SN12C renal) was 75.2 µM and the TGI (SNB-19 CNS) was greater than 100 µM. It also gave a TGI (SNB-75 CNS) greater than 100 µM, a TGI (SNB-78 CNS) greater than 100 µM and a TGI (SR leukemia) of 44.2 µM. The TGI (SW-620 colon) was 55.7 µM, the TGI (TK-10 renal) was greater than 100 µM and the TGI (U251 CNS) was 86.1 µM. For the same compound, the TGI (UACC-257 melanoma) was greater than 100 µM, the TGI (UACC-62 melanoma) was 35.5 µM and the TGI (UO-31 renal) was 71.9 µM. It also gave a TGI (XF 498 CNS) of 97.8 µM.
